Laboratory results: US20140128380A1, “METHODS OF MODULATING THE ACTIVITY OF THE MC1 RECEPTOR AND TREATMENT OF CONDITIONS RELATED TO THIS RECEPTOR” (Mimetica Pty Ltd, priority 2009, published 2014)

What follows are molecules tested against T1, human MC1R (hMC1R) (Homo sapiens, UniProt Q01726) (assay: Human MC1R radioligand binding assay (displacement of 125I-labeled NDP-MSH, Perkin Elmer hMC1R membranes)). Conditions: displacement of [125I]NDP-MSH, compounds tested as trifluoroacetate or hydrochloride salts or free base.
T1 construct: purchased Perkin Elmer ES-195-M400UA
Experimental: Assessments of compound binding to human MC1R (hMC1R)) by displacement of an ^125I-labeled NDP-MSH receptor ligand peptide were performed essentially as described in the data sheets produced by Perkin Elmer to accompany their frozen hMC1R membranes (Perkin Elmer catalog number ES-195-M400UA).
[^125I] NDP-MSH: radiolabeled in house and purified by HPLC:
Na ^125I (0.5 mCi, 17.4 Ci/mg) was added to 50 μL sodium phosphate (50 mM, pH 7.4) in an eppendorf tube precoated with IODOGEN. After incubation for 10 mins the phosphate buffer containing the iodine was added to NDP-MSH (10 ul at 1 mg/mL) in a separate eppendorf tube. This was incubated for a further 10 mins. The iodinated NDP-MSH was purified by HPLC on a Zorbax SB 300 column using solvent A: 0.05% TFA and solvent B: 90% acetonitrile 0.045% TFA with a linear gradient, 0-67% B over 60 mins.
Perkin Elmer frozen hMC1 membranes: catalog number ES-195-M400UA, 0.4 mL/vial; 400 microassays/vial, 0.78 mg/mL protein concentration
Vials of frozen membranes were thawed rapidly immediately before use, diluted with binding buffer and vortexed. Resuspended membranes were kept on ice until they were added to the wells of the plate.
Assays were performed in 96 well polypropylene plates. […] This was incubated for 1 hr at 37° C.

T1 sequence (Q01726 whole entry): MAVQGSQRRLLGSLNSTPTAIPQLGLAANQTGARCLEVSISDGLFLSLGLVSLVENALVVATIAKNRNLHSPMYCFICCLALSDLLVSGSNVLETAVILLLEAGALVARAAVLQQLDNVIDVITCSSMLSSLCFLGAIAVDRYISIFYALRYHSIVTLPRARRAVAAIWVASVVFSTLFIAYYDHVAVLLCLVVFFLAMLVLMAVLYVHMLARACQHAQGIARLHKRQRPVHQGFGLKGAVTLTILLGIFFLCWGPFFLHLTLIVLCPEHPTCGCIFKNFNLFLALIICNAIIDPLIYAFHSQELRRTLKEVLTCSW

Q: For COc1c(C(=O)NC[C@@H]2CCN(CC(c3ccccc3)c3ccccc3)C(=O)[C@H](CCCNC(=N)N)N2)ccc2ccccc12 [Compound 115, N-(((3S,5S)-1-(2,2-diphenylethyl)-3-(3-guanidinopropyl)-2-oxo-1,4-diazepan-5-yl)methyl)-1-methoxy-2-naphthamide], which IC50 is on record?
A: < 10 µM

Q: With N=C(N)NCCC[C@@H]1N[C@H](CNS(=O)(=O)c2ccc3ccccc3c2)CCN(CC(c2ccccc2)c2ccccc2)C1=O [Compound 103, N-(((3S,5S)-1-(2,2-diphenylethyl)-3-(3-guanidinopropyl)-2-oxo-1,4-diazepan-5-yl)methyl)naphthalene-2-sulfonamide] as the molecule, how does the IC50 read?
A: < 10 µM

Q: How did the IC50 turn out when O=C(NC[C@@H]1CCN(CC(c2ccccc2)c2ccccc2)C(=O)[C@H](CCN2CCOCC2)N1)c1ccc2cc(Cl)ccc2c1 [Compound 181, 6-chloro-N-(((3S,5S)-1-(2,2-diphenylethyl)-3-(2-morpholinoethyl)-2-oxo-1,4-diazepan-5-yl)methyl)-2-naphthamide] was run?
A: < 10 µM

Q: How did the IC50 turn out when O=C(/C=C/c1ccc(Cl)cc1)NC[C@@H]1CCN(CC(c2ccccc2)c2ccccc2)C(=O)[C@H](CCN2CCCCC2)N1 [Compound 101, (E)-3-(4-chlorophenyl)-N-(((3S,5S)-1-(2,2-diphenylethyl)-2-oxo-3-(2-(piperidin-1-yl)ethyl)-1,4-diazepan-5-yl)methyl)acrylamide] was run?
A: < 10 µM

Q: How did the IC50 turn out when “(E)-N-(((3S,5S)-3-(aminomethyl)-1-(3,5-dichlorobenzyl)-2-oxo-1,4-diazepan-5-yl)methyl)-3-(4-chlorophenyl)acrylamide [Compound 150]” was run?
A: < 10 µM

Q: CC(C)(C)c1ccc(C(=O)NC[C@@H]2CCN(CC(c3ccccc3)c3ccccc3)C(=O)[C@H](CCCNC(=N)N)N2)cc1 [Compound 114, 4-tert-butyl-N-(((3S,5S)-1-(2,2-diphenylethyl)-3-(3-guanidinopropyl)-2-oxo-1,4-diazepan-5-yl)methyl)benzamide] was tested. Which IC50 did it give?
A: < 10 µM

Q: For CNC(=O)[C@H](Cc1ccc2ccccc2c1)N1CC[C@H](CNC(=O)[C@H](N)Cc2ccc(F)cc2)N[C@@H](CCCNC(=N)N)C1=O [Compound 168, (R)-2-amino-3-(4-fluorophenyl)-N-(((3S,5R)-3-(3-guanidinopropyl)-1-((S)-1-(methylamino)-3-(naphthalen-2-yl)-1-oxopropan-2-yl)-2-oxo-1,4-diazepan-5-yl)methyl)propanamide], which IC50 is on record?
A: < 10 µM

Q: Which IC50 does the source give for O=C(NC[C@@H]1CCN(CC(c2ccccc2)c2ccccc2)C(=O)[C@H](CCN2CCCCC2)N1)c1cc(-c2ccc(Cl)cc2)on1 [Compound 162, 5-(4-chlorophenyl)-N-(((3S,5S)-1-(2,2-diphenylethyl)-2-oxo-3-(2-(piperidin-1-yl)ethyl)-1,4-diazepan-5-yl)methyl)isoxazole-3-carboxamide] here?
A: < 10 µM

Q: CC(C)c1ccc(/C=C/C(=O)NC[C@@H]2CCN(CC(c3ccccc3)c3ccccc3)C(=O)[C@H](CCN)N2)cc1 [Compound 156, (E)-N-(((3S,5S)-3-(2-aminoethyl)-1-(2,2-diphenylethyl)-2-oxo-1,4-diazepan-5-yl)methyl)-3-(4-isopropylphenyl)acrylamide] was tested. Which IC50 did it give?
A: < 10 µM

Q: With Cc1ccc(/C=C/C(=O)NC[C@@H]2CCN(CC(c3ccccc3)c3ccccc3)C(=O)[C@H](CCCN)N2)cc1 [Compound 120, (E)-N-(((3S,5S)-3-(3-aminopropyl)-1-(2,2-diphenylethyl)-2-oxo-1,4-diazepan-5-yl)methyl)-3-p-tolylacrylamide] as the molecule, how does the IC50 read?
A: < 10 µM

Q: For O=C(/C=C/c1ccc(Cl)cc1)NC[C@@H]1CCN(CC(c2ccccc2)c2ccccc2)C(=O)[C@H](CCN2CCOCC2)N1 [Compound 159, (E)-3-(4-chlorophenyl)-N-(((3S,5S)-1-(2,2-diphenylethyl)-3-(2-morpholinoethyl)-2-oxo-1,4-diazepan-5-yl)methyl)acrylamide], which IC50 is on record?
A: < 10 µM

Q: How did the IC50 turn out when CC[C@H](CN1CC[C@@H](CNC(=O)c2ccc3cc(Cl)ccc3c2)N[C@@H](CCN(C(C)=O)C(C)C)C1=O)c1ccccc1 [Compound 180, 6-chloro-N-(((3S,5S)-3-(2-(N-isopropylacetamido)ethyl)-2-oxo-1-((S)-2-phenylbutyl)-1,4-diazepan-5-yl)methyl)-2-naphthamide] was run?
A: < 10 µM

Q: How did the IC50 turn out when CNC(=O)[C@H](Cc1ccc2ccccc2c1)N1CC[C@H](CNC(=O)/C=C/c2ccc(Cl)cc2)N[C@@H](CCCNC(=N)N)C1=O [Compound 175, (E)-3-(4-chlorophenyl)-N-(((3S,5R)-3-(3-guanidinopropyl)-1-((S)-1-(methylamino)-3-(naphthalen-2-yl)-1-oxopropan-2-yl)-2-oxo-1,4-diazepan-5-yl)methyl)acrylamide] was run?
A: < 10 µM

Q: For NCCC[C@@H]1N[C@H](CNC(=O)/C=C/c2ccc(F)cc2)CCN(CC(c2ccccc2)c2ccccc2)C1=O [Compound 121, (E)-N-(((3S,5S)-3-(3-aminopropyl)-1-(2,2-diphenylethyl)-2-oxo-1,4-diazepan-5-yl)methyl)-3-(4-fluorophenyl)acrylamide], which IC50 is on record?
A: < 10 µM

Q: With Cc1ccc(/C=C/C(=O)NC[C@@H]2CCN(CC(c3ccccc3)c3ccccc3)C(=O)[C@H](CCN)N2)c(C)c1 [Compound 157, (E)-N-(((3S,5S)-3-(2-aminoethyl)-1-(2,2-diphenylethyl)-2-oxo-1,4-diazepan-5-yl)methyl)-3-(2,4-dimethylphenyl)acrylamide] as the molecule, how does the IC50 read?
A: < 10 µM

Q: NC[C@@H]1N[C@H](CNC(=O)/C=C/c2ccc(Cl)cc2)CCN(CC(c2ccccc2)c2ccccc2)C1=O [Compound 133, (E)-N-(((3S,5S)-3-(aminomethyl)-1-(2,2-diphenylethyl)-2-oxo-1,4-diazepan-5-yl)methyl)-3-(4-chlorophenyl)acrylamide] was tested. Which IC50 did it give?
A: < 10 µM

Q: Which IC50 does the source give for O=C(NC[C@@H]1CCN(Cc2cc(Cl)cc(Cl)c2)C(=O)[C@H](CN2CCCCC2)N1)c1ccc(Cl)c(Cl)c1 [Compound 151, 3,4-dichloro-N-(((3S,5S)-1-(3,5-dichlorobenzyl)-2-oxo-3-(piperidin-1-ylmethyl)-1,4-diazepan-5-yl)methyl)benzamide] here?
A: < 10 µM

Q: How did the IC50 turn out when CN(C)C(=N)NCCC[C@@H]1N[C@H](CNC(=O)c2ccc3ccccc3c2)CCN(CC(c2ccccc2)c2ccccc2)C1=O [Compound 117, N-(((3S,5S)-3-(3-(3,3-dimethylguanidino)propyl)-1-(2,2-diphenylethyl)-2-oxo-1,4-diazepan-5-yl)methyl)-2-naphthamide] was run?
A: < 10 µM

Q: Which IC50 does the source give for NC[C@@H]1N[C@H](CNC(=O)c2ccc(Cl)c(Cl)c2)CCN(Cc2cc(Cl)cc(Cl)c2)C1=O [Compound 148, N-(((3S,5S)-3-(aminomethyl)-1-(3,5-dichlorobenzyl)-2-oxo-1,4-diazepan-5-yl)methyl)-3,4-dichlorobenzamide] here?
A: < 10 µM

Q: NCC[C@@H]1N[C@H](CNC(=O)c2ccc(Cl)c(Cl)c2)CCN(Cc2cc(Cl)cc(Cl)c2)C1=O [Compound 140, N-(((3S,5S)-3-(2-aminoethyl)-1-(3,5-dichlorobenzyl)-2-oxo-1,4-diazepan-5-yl)methyl)-3,4-dichlorobenzamide] was tested. Which IC50 did it give?
A: < 10 µM

Q: Which IC50 does the source give for NCCCC[C@H]1N[C@H](CNC(=O)c2ccc(-c3ccccc3)cc2)CCN(CCc2ccccc2)C1=O [Compound 184, N-(((3R,5S)-3-(4-aminobutyl)-2-oxo-1-phenethyl-1,4-diazepan-5-yl)methyl)biphenyl-4-carboxamide] here?
A: < 10 µM

Q: Which IC50 does the source give for O=C(/C=C/c1ccc(Cl)cc1)NC[C@@H]1CCN(CC(c2ccccc2)c2ccccc2)C(=O)[C@H](CN2CCCCC2)N1 [Compound 134, (E)-3-(4-chlorophenyl)-N-(((3S,5S)-1-(2,2-diphenylethyl)-2-oxo-3-(piperidin-1-ylmethyl)-1,4-diazepan-5-yl)methyl)acrylamide] here?
A: < 10 µM

Q: Which IC50 does the source give for CCC(CN1CC[C@@H](CNC(=O)c2ccc3ccccc3c2)N[C@@H](CCN)C1=O)c1ccccc1 (mixture of isomers) [Compound 102, N-(((3S,5S)-3-(2-aminoethyl)-2-oxo-1-(2-phenylbutyl)-1,4-diazepan-5-yl)methyl)-2-naphthamide] here?
A: < 10 µM

Q: With CC(C)(NC(=O)/C=C/c1ccc(Cl)cc1)[C@@H]1CCN(CC(c2ccccc2)c2ccccc2)C(=O)[C@H](CCN)N1 [Compound 164, (E)-N-(2-((3S,5S)-3-(2-aminoethyl)-1-(2,2-diphenylethyl)-2-oxo-1,4-diazepan-5-yl)propan-2-yl)-3-(4-chlorophenyl)acrylamide] as the molecule, how does the IC50 read?
A: < 10 µM

Q: N=C(N)NCCC[C@H]1N[C@@H](CNC(=O)c2ccc(-c3ccccc3)cc2)CCN(CC2CCCCC2)C1=O [Compound 176, N-(((3R,5R)-1-(cyclohexylmethyl)-3-(3-guanidinopropyl)-2-oxo-1,4-diazepan-5-yl)methyl)biphenyl-4-carboxamide] was tested. Which IC50 did it give?
A: < 10 µM

Q: With N=C(N)NCCC[C@@H]1N[C@H](CNC(=O)c2ccc3ccccc3c2)CCN(CCC2CC3CCC2C3)C1=O (stereo partly drawn) [Compound 131, N-(((3S,5S)-1-(2-(bicyclo[2.2.1]heptan-2-yl)ethyl)-3-(3-guanidinopropyl)-2-oxo-1,4-diazepan-5-yl)methyl)-2-naphthamide] as the molecule, how does the IC50 read?
A: < 10 µM

Q: How did the IC50 turn out when CC1CCC(C)N1CC[C@@H]1N[C@H](CNC(=O)/C=C/c2ccc(Cl)cc2)CCN(CC(c2ccccc2)c2ccccc2)C1=O (stereo partly drawn) [Compound 160, (E)-3-(4-chlorophenyl)-N-(((3S,5S)-3-(2-(2,5-dimethylpyrrolidin-1-yl)ethyl)-1-(2,2-diphenylethyl)-2-oxo-1,4-diazepan-5-yl)methyl)acrylamide] was run?
A: < 10 µM
